One series concerns HDL-c, VLDL-c, LDL-c. Put plainly: Lipoprotein profile and assessment of atherosclerosis. The format is in vivo, rats. More on the design: HDL-c / VLDL-c / LDL-c: unit not given here. Conditions: H.G. animals; standard drug. As to the method: Before utilizing the test drug for human consumption the pre-clinical safety and efficacy profile of single plant candidate extract as well as in combined form was conducted following standard norms. […] The effect of test drug was assessed on glucose levels, insulin level, glycosylated hemoglobin, and pro-inflammatory cytokines, and the most important bio-marker neopterin including various neuro-psychological assessments.

A further series relates to Triglycerides. Nature of the series: Anti-hyperlipidemic activity on triglycerides. Conditions: H.G. animals, standard drug. The format is in vivo, rats. As to the method:
(§1) Before utilizing the test drug for human consumption the pre-clinical safety and efficacy profile of single plant candidate extract as well as in combined form was conducted following standard norms. The biological property of test formulation was validated in streptozotocin (STZ) induced diabetes animal model which also helped in evaluation of vascular complications caused due to diabetes. The effect of test drug was assessed on glucose levels, insulin level, glycosylated hemoglobin, and pro-inflammatory cytokines, and the most important bio-marker neopterin including various neuro-psychological assessments. The mechanism based study clearly indicated the neopterin decreasing potential of test formulation which exerted neuro-protective activity, better glycemic control, anti-atherosclerotic, anti-inflammatory, anti-oxidant effects in STZ induced diabetes among the animals. Further, its therapeutic activity has also been validated in neurogenic dementia and other cognitive deficits associated with diabetes mellitus.

A further series deals with Adipocyte. Put plainly: Reduction in hypertrophy of adipocyte. It counts as in vivo, rats. Conditions: H.G. animals; standard drug. As to the method: as §1, with “mellitus. Reduction in hypertrophy of Adipocyte on Treated with Test Formulation” for “mellitus.”
The subject of another series is Cholesterol. Nature of the series: Anti-hyperlipidemic activity: cholesterol. It counts as in vivo, rats. Conditions: H.G. animals, standard drug. As to the method:
as §1

For another series, the system named is Free Fatty Acid (FFA). Nature of the series: Reduction in free fatty acids. The format is in vivo, rats. The settings on record: H.G. animals; standard drug. As to the method: as §1, with “mellitus. Reduction in Free Fatty Acids Following Test Formulation Treatment Treated with test formulation reported FFA elevation in tissues and plasma of diabetic rats” for “mellitus.”

The test system of series [1] is SGOT, SGPT, ALP, ACP, LDH. Put plainly: Hepato-protective effect (SGOT, SGPT, ALP, ACP, LDH). Conditions: H.G. animals; standard drug. The format is in vivo, rats. As to the method: as §1, with “mellitus. Hepato-Protective Effect of Test Formulation” for “mellitus.”
Another series concerns G-6-P. Put plainly: Regulation of key enzymes in gluconeogenesis: G-6-P. The format is in vivo, rats. Conditions: H.G. animals; standard drug. As to the method:
as §1

Series [2] has as its system streptozotocin (STZ) induced diabetes animal model. Nature of the series: Anti-hyperglycemic activity, weekly assessment of plasma glucose. The format is in vivo, rats. Conditions: H.G. animals, standard drug. As to the method: as §1
Low dose=100 mg/kg; High dose=200 mg/kg

A further series deals with βTC6 insulinoma cell. Nature of the series: Cell viability assay in βTC6 insulinoma cell line. The format is cell-based. The settings on record: for Cell viability: βTC6, control 100.00. An excerpt:
Cell Viability Assay in βTC6 Insulinoma Cell Lime Following—

The subject of series [3] is nor-epinephrine, serotonin and dopamine in whole brain. The settings on record: mice; acute administration 5 mg/kg ip; cited from earlier work.

Results on 3 compounds are retold here after US10149879B2 (priority 2014, dated 2018).

For `CCc1ccc(CCOc2ccc(CC3SC(=O)NC3=O)cc2)nc1` (stereo not drawn) [Pioglitazone], in the series with HDL-c, VLDL-c, LDL-c, the Anti-atherogenic index stood at 10.02 ± 5.23, the “Atherogenic Index” value came out at 2.20 ± 0.35, the HDL-c came to 31.44 ± 2.85 and the LDL-c was 35.11 ± 7.29. Besides, in the series on HDL-c, VLDL-c, LDL-c, the VLDL-c was determined as 17.86 ± 2.05. The Triglycerides in the series with Triglycerides (0 days) was found to be 133.35 ± 09.77 mg/dL. The same compound displayed a Triglycerides with Triglycerides (7th day) of 117.50 ± 9.02 mg/dL. For the same compound, the Triglycerides in the series with Triglycerides (14th Day) came out at 71.30 ± 6.26 mg/dL. The Adipocyte cell area in the series on Adipocyte came to 136.31 ± 13.53 μm. The Cholesterol in the series on Cholesterol (0 days) turned out to be 112.33 ± 7.50 mg/dL. The Cholesterol in the series on Cholesterol (7th day) was 94.23 ± 8.23 mg/dL. Besides, the Cholesterol with Cholesterol (14th Day) was 81.41 ± 9.94 mg/dL. Further, in the series with Free Fatty Acid (FFA), the “Free Fatty Acid (FFA), Heart” value was 379.17 ± 22.06 mg/100 g of tissue; the “Free Fatty Acid (FFA), Liver” value is recorded as 522.67 ± 37.75 mg/100 g of tissue; the “Free Fatty Acid (FFA), Plasma” value was found to be 69.00 ± 5.60 mg/L. In series [1], this compound gave an ACP of 11.95 ± 1.00 U/L, an ALP of 139.50 ± 3.15 U/L, an LDH of 160.00 ± 15.00 U/L and an SGOT of 72.00 ± 5.71 U/L. This compound also displayed an SGPT in [1] of 27.00 ± 3.00 U/L. Also, in the series on G-6-P, the “G-6-P, Kidney” value is listed as 45.08 ± 4.76 μm/min/mg of protein and the “G-6-P, Liver” value was 68.56 ± 7.51 μm/min/mg of protein. Moreover, the Plasma glucose in series [2] (0th Day) stood at 170.17 ± 12.55. In [2] (7th Day, in mg/dL), this compound displayed a Plasma glucose of 153.83 ± 15.68. The compound also returned a Plasma glucose in [2] (14th Day, in mg/dL) of 140.17 ± 6.25.
`COc1ccc2cc3[n+](cc2c1OC)CCc1cc2c(cc1-3)OCO2` [Berberin]: the Cell viability in the series with βTC6 insulinoma cell (1 pM) came out at 97.95 ± 1.12; in the series on βTC6 insulinoma cell (10 pM), 96.99 ± 2.20; in the series with βTC6 insulinoma cell (100 pM) it was 94.60 ± 2.45; in the series on βTC6 insulinoma cell (1 nM), 90.89 ± 1.42; in the series on βTC6 insulinoma cell (10 nM), 88.65 ± 2.60; in the series on βTC6 insulinoma cell (100 nM), 86.30 ± 1.67. Besides, the figures for the Cell viability in the series with βTC6 insulinoma cell (1 μM) and with βTC6 insulinoma cell (10 μM) were 73.75 ± 2.90 and 67.89 ± 1.65, respectively. The “toxicity to the cells” value in the series on βTC6 insulinoma cell (βTC6 insulinoma cells, 10 ng/ml) is on record as “non-toxic”. Also, the “increased level of dopamine in whole brain” value in series [3] is 31%. Also, the “increased level of nor-epinephrine in whole brain” value in [3] is 31%. In series [3], the “increased level of serotonin in whole brain” value is listed as 47%.
In the series on HDL-c, VLDL-c, LDL-c, `CN(C)C(=N)N=C(N)N` [Metformin] showed an HDL-c of 27.68 ± 3.51, an LDL-c of 41.38 ± 4.26 and a VLDL-c of 22.10 ± 3.15. Moreover, the Triglycerides in the series with Triglycerides (0 days) amounted to 134.77 ± 14.06 mg/dL. This compound came in with a Triglycerides with Triglycerides (7th day) of 123.32 ± 9.51 mg/dL. In addition, in the series on Triglycerides (14th Day), the Triglycerides was 102.50 ± 11.75 mg/dL. Besides, the Adipocyte cell area in the series with Adipocyte is recorded as 146.24 ± 10.85 μm. For the same compound, the Cholesterol with Cholesterol (0 days) came to 110.33 ± 9.55 mg/dL. The Cholesterol in the series with Cholesterol (7th day) stood at 100.00 ± 5.63 mg/dL. In the series with Cholesterol (14th Day), this compound came in with a Cholesterol of 88.17 ± 4.79 mg/dL. Also, in the series with Free Fatty Acid (FFA), the “Free Fatty Acid (FFA), Heart” value is 446.83 ± 39.65 mg/100 g of tissue; the “Free Fatty Acid (FFA), Liver” value is 777.83 ± 53.14 mg/100 g of tissue; the “Free Fatty Acid (FFA), Plasma” value is 87.67 ± 7.68 mg/L. In [1], this compound gave an ACP of 12.05 ± 0.68 U/L, an ALP of 142.00 ± 6.00 U/L, an LDH of 145.11 ± 15.00 U/L and an SGOT of 60.00 ± 5.00 U/L. For the same compound, the SGPT in series [1] was 24.25 ± 2.12 U/L. In the series on G-6-P, the “G-6-P, Kidney” value is recorded as 41.85 ± 7.71 μm/min/mg of protein and the “G-6-P, Liver” value is 57.49 ± 8.17 μm/min/mg of protein. In addition, in series [2] (0th Day, in mg/dL), the Plasma glucose was found to be 169.83 ± 10.03. Moreover, in series [2] (7th Day, in mg/dL), the Plasma glucose is 148.67 ± 8.85. The compound also had a Plasma glucose in [2] (14th Day, in mg/dL) of 118.83 ± 8.75.
